Assay results published in ChEMBL document CHEMBL5050844 (2019).

How the values were obtained:
[1] = Induction of anti-CD3/CD28 antibodies-stimulated human anergic T cell activation at 10 uM assessed fold increase in IFN-gamma secretion measured by ELISA assay; type: functional, T cell line
[2] = Induction of anti-CD3 antibodies-stimulated human exhausted T cell activation assessed fold increase in IL-2 secretion measured by ELISA assay; type: functional, T cell line; also: reference of the scale not given here
[3] = Induction of anti-CD3 antibodies-stimulated human T cell activation at 1 uM assessed fold increase in CD25 expression measured by ELISA assay; type: functional, T cell line; also: reference of the scale not given here
[4] = Induction of anti-CD3 antibodies-stimulated human CD8+ T cell activation at 10 uM assessed fold increase in cell proliferation measured by flow cytometry analysis; type: functional, T cell line; also: reference of the scale not given here
[5] = Induction of anti-CD3 antibodies-stimulated human exhausted CD8+ T cell activation assessed fold increase in CTLA4 expression measured by flow cytometry analysis; type: functional, T cell line; also: reference of the scale not given here
[6] = Induction of anti-CD3/CD28 antibodies-stimulated human CD4+ T cell activation at 1.11 uM assessed fold increase in CD69 expression measured by flow cytometry analysis; type: functional, T cell line
[7] = Induction of anti-CD3 antibodies-stimulated human T cell activation at 8 uM assessed fold increase in IL-2 secretion measured by ELISA assay; type: functional, T cell line; also: reference of the scale not given here
[8] = Induction of anti-CD3 antibodies-stimulated human T cell activation at 10 uM assessed fold increase in GM-CSF secretion measured by ELISA assay; type: functional, T cell line; also: reference of the scale not given here
[9] = Induction of anti-CD3 antibodies-stimulated human CD4+ T cell activation at 10 uM assessed fold increase in CD69 expression measured by flow cytometry analysis; type: functional, T cell line; also: reference of the scale not given here
[10] = Induction of activation of human CD56+ CD3- NK cells co-cultured with human K562 cells in 1:1 ratio and assessed as increase in IFN-gamma secretion at 2.5 uM measured by ELISA assay; type: functional, Natural killer cell
[11] = Induction of anti-CD3 antibodies-stimulated human CD8+ T cell activation at 1.11 uM assessed fold increase in CD69 expression measured by flow cytometry analysis; type: functional, T cell line; also: reference of the scale not given here
[12] = Induction of anti-CD3/CD28 antibodies-stimulated human anergic T cell activation at 0.37 uM assessed fold increase in IFN-gamma secretion measured by ELISA assay; type: functional, T cell line
[13] = Induction of activation of human CD56+ CD3- NK cells co-cultured with human K562 cells in 1:1 ratio and assessed as increase in TNF-alpha secretion at 10 uM measured by ELISA assay; type: functional, Natural killer cell
[14] = Induction of anti-CD3/CD28 antibodies-stimulated human CD8+ T cell activation at 1.11 uM assessed fold increase in CD69 expression measured by flow cytometry analysis; type: functional, T cell line
[15] = Induction of anti-CD3 antibodies-stimulated human T cell activation at 1.11 uM assessed fold increase in TNF-alpha secretion measured by ELISA assay; type: functional, T cell line; also: reference of the scale not given here
[16] = Induction of anti-CD3/CD28 antibodies-stimulated human T cell activation at 1.11 uM assessed fold increase in TNF-alpha secretion measured by ELISA assay; type: functional, T cell line
[17] = Induction of anti-CD3/CD28 antibodies-stimulated human T cell activation at 1.11 uM assessed fold increase in IFN-gamma secretion measured by ELISA assay; type: functional, T cell line
[18] = Induction of anti-CD3/CD28 antibodies-stimulated human T cell activation at 1 uM assessed fold increase in CD25 expression measured by ELISA assay; type: functional, T cell line
[19] = Induction of anti-CD3/CD28 antibodies-stimulated human CD4+ T cell activation at 10 uM assessed fold increase in cell proliferation measured by flow cytometry analysis; type: functional, T cell line
[20] = Induction of activation of human CD56+ CD3- NK cells co-cultured with human K562 cells in 1:1 ratio and assessed as increase in IFN-gamma secretion at 10 uM measured by ELISA assay; type: functional, Natural killer cell
[21] = Induction of anti-CD3/CD28 antibodies-stimulated human T cell activation at 10 uM assessed fold increase in TNF-alpha secretion measured by ELISA assay; type: functional, T cell line
[22] = Induction of anti-CD3 antibodies-stimulated human CD8+ T cell activation at 10 uM assessed fold increase in CD69 expression measured by flow cytometry analysis; type: functional, T cell line; also: reference of the scale not given here
[23] = Induction of anti-CD3/CD28 antibodies-stimulated human T cell activation at 0.3 uM assessed fold increase in CD25 expression measured by ELISA assay; type: functional, T cell line
[24] = Induction of anti-CD3 antibodies-stimulated human T cell activation at 8 uM assessed fold increase in CD25 expression measured by ELISA assay; type: functional, T cell line; also: reference of the scale not given here
[25] = Induction of anti-CD3 antibodies-stimulated human CD8+ T cell activation at 1.11 uM assessed fold increase in cell proliferation measured by flow cytometry analysis; type: functional, T cell line; also: reference of the scale not given here
[26] = Induction of anti-CD3 antibodies-stimulated human exhausted T cell activation assessed fold increase in GM-CSF secretion measured by ELISA assay; type: functional, T cell line; also: reference of the scale not given here
[27] = Induction of anti-CD3/CD28 antibodies-stimulated human T cell activation at 10 uM assessed fold increase in GM-CSF secretion measured by ELISA assay; type: functional, T cell line
B cell = test: Induction of anti-IgM-stimulated human CD20+ B cell activation at 10 to 1000 uM assessed as increase in CD69 expression measured as mean fluorescence intensity AUC by flow cytometry analysis; type: functional, cell-based; conditions: dose 10-1000 µM
[28] = Induction of activation of human CD56+ CD3- NK cells co-cultured with human K562 cells in 1:1 ratio and assessed as increase in TNF-alpha secretion at 2.5 uM measured by ELISA assay; type: functional, Natural killer cell
[29] = Induction of anti-CD3 antibodies-stimulated human T cell activation at 1.11 uM assessed fold increase in IFN-gamma secretion measured by ELISA assay; type: functional, T cell line; also: reference of the scale not given here
[30] = Induction of allogenic human T cell activation at 10 uM assessed fold increase in cell proliferation; type: functional, T cell line
[31] = Induction of anti-CD3 antibodies-stimulated human CD4+ T cell activation at 1.11 uM assessed fold increase in CD69 expression measured by flow cytometry analysis; type: functional, T cell line; also: reference of the scale not given here
[32] = Induction of anti-CD3/CD28 antibodies-stimulated human T cell activation at 0.3 uM assessed fold increase in IL-2 secretion measured by ELISA assay; type: functional, T cell line
[33] = Induction of anti-CD3/CD28 antibodies-stimulated human T cell activation at 4 uM assessed fold increase in IL-2 secretion measured by ELISA assay; type: functional, T cell line
[34] = Induction of anti-CD3/CD28 antibodies-stimulated human CD4+ T cell activation at 10 uM assessed fold increase in CD69 expression measured by flow cytometry analysis; type: functional, T cell line
[35] = Induction of anti-CD3/CD28 antibodies-stimulated human CD4+ T cell activation at 1.11 uM assessed fold increase in cell proliferation measured by flow cytometry analysis; type: functional, T cell line
[36] = Induction of anti-CD3/CD28 antibodies-stimulated human T cell activation at 10 uM assessed fold increase in IFN-gamma secretion measured by ELISA assay; type: functional, T cell line
[37] = Induction of anti-CD3 antibodies-stimulated human T cell activation at 10 uM assessed fold increase in IFN-gamma secretion measured by ELISA assay; type: functional, T cell line; also: reference of the scale not given here

Row | SMILES | fold change (FC) [1] | fold change (FC) [2] | fold change (FC) [3] | fold change (FC) [4] | fold change (FC) [5] | fold change (FC) [6] | fold change (FC) [7] | fold change (FC) [8] | fold change (FC) [9] | fold change (FC) [10] | fold change (FC) [11] | fold change (FC) [12] | fold change (FC) [13] | fold change (FC) [14] | fold change (FC) [15] | fold change (FC) [16] | fold change (FC) [17] | fold change (FC) [18] | fold change (FC) [19] | fold change (FC) [20] | further results
1 | C[C@H](c1cc2c(c(C(F)(F)F)c1)CN(c1cccc(C3(Cc4nncn4C)COC3)c1)C2=O)N1CC[C@H](F)C1 | >4.01 | >3.01 | >=1.001 | >4 | >1.61 | 1.401 | >=0.201 | 2.01 | >1.601 | 2.01 | 1.201 | 2.51 | >=5 | 1.201 | 1.51 | 2.01 | <=2 | 1.51 | >4 | >=5 | fold change (FC) [21]: 2.01; fold change (FC) [22]: 1.401; fold change (FC) [23]: 1.31; fold change (FC) [24]: >=1.001; fold change (FC) [25]: 3.01; fold change (FC) [26]: >1.61; fold change (FC) [27]: >4; AUC (B cell): 1.01; fold change (FC) [28]: 2.01; fold change (FC) [29]: 2.01; fold change (FC) [30]: >3; fold change (FC) [31]: 1.401; fold change (FC) [32]: 5; fold change (FC) [33]: >=7.5; fold change (FC) [34]: >1.601; fold change (FC) [35]: >4; fold change (FC) [36]: 3.01; fold change (FC) [37]: >4
2 | C[C@H](Cc1nncn1C)c1cccc(NC(=O)c2n[nH]c3c2CCC3)c1 | <=2.5 | <=2.5 | 0.601 | 2.01 | <=1.4 | 1.401 | 0.151 | 1.51 | 1.201 | <=1 | 1.401 | <=2.5 | 1.01 | 1.201 | <=1.5 | <=1.5 | <=2 | 1.01 | >4 | 2.01 | fold change (FC) [21]: 2.01; fold change (FC) [22]: <=1.2; fold change (FC) [23]: 1.01; fold change (FC) [24]: 0.801; fold change (FC) [25]: >4; fold change (FC) [26]: <=1.4; fold change (FC) [27]: 2.01; AUC (B cell): 0.5; fold change (FC) [28]: 1.01; fold change (FC) [29]: 2.01; fold change (FC) [30]: <=2; fold change (FC) [31]: >1.601; fold change (FC) [32]: 1.01; fold change (FC) [33]: 2.51; fold change (FC) [34]: 1.201; fold change (FC) [35]: >4; fold change (FC) [36]: 2.01; fold change (FC) [37]: <=2
3 | Cc1cc(C(=O)Nc2cccc([C@@H](C)Cc3nncn3C)c2)nc(C2CC2)n1 | <=2.5 | <=2.5 | 0.801 | >4 | <=1.4 | 1.401 | 0.101 | 1.51 | >1.601 | 1.01 | <=1.2 | <=2.5 | 1.01 | 1.201 | <=1.5 | <=1.5 | 3.01 | 1.01 | >4 | 2.01 | fold change (FC) [21]: 2.01; fold change (FC) [22]: 1.201; fold change (FC) [23]: 1.01; fold change (FC) [24]: >=1.001; fold change (FC) [25]: 2.01; fold change (FC) [26]: <=1.4; fold change (FC) [27]: 2.01; AUC (B cell): 1.01; fold change (FC) [28]: <=1; fold change (FC) [29]: <=2; fold change (FC) [30]: <=2; fold change (FC) [31]: 1.401; fold change (FC) [32]: 1.01; fold change (FC) [33]: 2.51; fold change (FC) [34]: 1.401; fold change (FC) [35]: >4; fold change (FC) [36]: >4; fold change (FC) [37]: <=2
4 | Cc1cc(C(=O)Nc2cccc(C3(Cc4nncn4C)COC3)c2)nc(C2CC2)n1 | >4.01 | >3.01 | >=1.001 | >4 | <=1.4 | 1.401 | >=0.201 | 2.01 | >1.601 | 2.01 | 1.201 | 2.51 | >=5 | 1.201 | 1.51 | 2.01 | 2.01 | >=1.76 | >4 | >=5 | fold change (FC) [21]: 2.01; fold change (FC) [22]: 1.401; fold change (FC) [23]: 1.31; fold change (FC) [24]: >=1.001; fold change (FC) [25]: >4; fold change (FC) [26]: >1.61; fold change (FC) [27]: >4; AUC (B cell): > 1.51; fold change (FC) [28]: 2.01; fold change (FC) [29]: 2.01; fold change (FC) [30]: >3; fold change (FC) [31]: 1.401; fold change (FC) [32]: 5; fold change (FC) [33]: >=7.5; fold change (FC) [34]: 1.401; fold change (FC) [35]: >4; fold change (FC) [36]: >4; fold change (FC) [37]: >4
